Laboratory results reported in patent US9586959B2, “Substituted tricyclic heterocycles as histamine 4 receptor inhibitors” (C&C RESEARCH LABORATORIES, priority 2011, dated 2017).
Values after ≈ are worked out from the molar mass of the structure shown.

How the values were obtained:
[1] = target: human histamine 4 receptor (hH4R) (Homo sapiens (Human), UniProt Q9H3N8); assay: Binding affinity of human histamine 4 receptor (hH4R), [3H] labeled histamine displacement; details: hH4R-overexpressed cell membrane, [3H] histamine
Chain of human histamine 4 receptor (hH4R) (Q9H3N8 whole entry): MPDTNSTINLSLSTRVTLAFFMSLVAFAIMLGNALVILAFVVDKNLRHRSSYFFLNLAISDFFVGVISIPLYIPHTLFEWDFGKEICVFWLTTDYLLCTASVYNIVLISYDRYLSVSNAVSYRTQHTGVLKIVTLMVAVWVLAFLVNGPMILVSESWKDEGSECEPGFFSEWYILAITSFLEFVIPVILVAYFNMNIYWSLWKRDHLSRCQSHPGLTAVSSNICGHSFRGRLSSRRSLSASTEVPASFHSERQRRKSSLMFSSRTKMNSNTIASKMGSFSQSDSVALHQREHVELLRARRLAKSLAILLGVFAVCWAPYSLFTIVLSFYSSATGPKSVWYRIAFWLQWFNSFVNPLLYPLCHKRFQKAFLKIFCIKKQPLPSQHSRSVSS
Summary of the method: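 Membranes of hH4R-overexpressing cells (25 μg) incubated with compound and [3H]histamine (diluted to 1 μM before addition) for 30 min at 27° C. Non-specific binding defined with histamine (100 μM before addition); bound radioligand collected by filtration on PEI-presoaked glass fibre, washed with 50 mM Tris-HCl pH 7.4, counted by scintillation (CPM).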

[2] = target: human histamine 3 receptor (hH3R) (Homo sapiens (Human), UniProt Q9Y5N1); assay: Binding affinity of human histamine 3 receptor (hH3R), [3H] labeled N-α-methylhistamine displacement; details: hH3R-overexpressed cell membrane, [3H] N-α-methylhistamine
Chain of human histamine 3 receptor (hH3R) (Q9Y5N1 whole entry): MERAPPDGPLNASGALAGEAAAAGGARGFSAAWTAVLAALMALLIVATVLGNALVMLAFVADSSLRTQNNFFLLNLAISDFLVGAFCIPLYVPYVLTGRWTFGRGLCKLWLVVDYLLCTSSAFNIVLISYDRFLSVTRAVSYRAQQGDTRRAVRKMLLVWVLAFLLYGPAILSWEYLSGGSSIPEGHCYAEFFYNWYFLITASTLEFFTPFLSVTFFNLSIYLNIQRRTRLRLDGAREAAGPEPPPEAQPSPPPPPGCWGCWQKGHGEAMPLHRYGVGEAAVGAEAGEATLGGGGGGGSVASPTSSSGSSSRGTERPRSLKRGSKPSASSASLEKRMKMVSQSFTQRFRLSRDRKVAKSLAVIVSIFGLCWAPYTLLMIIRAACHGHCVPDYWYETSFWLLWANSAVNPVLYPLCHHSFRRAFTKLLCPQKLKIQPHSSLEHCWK
Summary of the method: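 Membranes from cells overexpressing hH3R (15 μg) were incubated with compound and [3H]N-α-methylhistamine (20 μM stock) in 50 mM Tris-HCl pH 7.4, 5 mM MgCl2 for 30 min at 27 °C. Bound radioligand was counted by scintillation after filtration; 200 μM (R)(−)-α-methylhistamine stock defined non-specific binding; IC50 derived.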

[3] = Solubility in artificial gastrointestinal tract solution; format: physicochemical; details: artificial gastrointestinal tract solution, thermodynamic from solid; for solubility at 1 h: fassgf or other biorelevant, first solution pH 1.2, 2 mg/mL sample, 37° C. 1 hour; for solubility at 2 h: fassif, second solution pH 6.5, 2 mg/mL sample, 37° C. 2 hours
Summary of the method: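 Two media were used: pH 1.2 NaCl/HCl with Triton X-100, and pH 6.5 phosphate buffer with sodium taurocholate and lecithin. Heated sample solutions were filtered to remove undissolved compound, diluted 1:1 with CH3CN, and solubility was measured by liquid chromatography.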

[4] = Mouse pharmacokinetics (oral); format: in vivo; details: plasma, 50 mg/kg, ICR mouse, 5 mg/mL solution at 10 mL/kg; for AUC(0-inf): read-out: Mouse pharmacokinetics AUCinf; for half-life: read-out: Mouse pharmacokinetics t1/2 (converted)
Description: The weight of each ICR mouse and SD rat was properly 20˜30 g and 200˜300 g, and dosage of the compound of the present invention was 10 mL/kg for mice and 5 mL/kg for rats, and administered orally using Zonde. Blood collection was performed at 0.25, 0.5, 1, 2, 4, 6, 8 and 24 hours by orbital venous blood collection using a capillary tube coated with an anticoagulant, and then plasma was isolated using a centrifuge and kept in a freezer.
Plasma collected from animals and standard concentration material were pretreated using solid-phase extraction, and concentration of the compound of the invention was determined using a liquid chromatography mass spectrometer (Agilent HPLC, API-3000).
According to the resulting concentration value, the pharmacokinetics parameter was found using WinNonlin (Version 6.2) and half-life (t1/2), maximum blood concentration (Cmax) and infinite area under the curve (AUCinf) are shown in Tables 6 and 7 below.

[5] = test system: substance P-induced itching, ICR mice; assay: Substance P-induced itching model in ICR mice; format: in vivo; details: 50 mg/kg oral, substance P 100 nmol intradermal, 20 min count
Description: Female, ICR mice (8 weeks old) were purchased from OrientBio Co., Ltd. The animals were housed under conditions of controlled temperature (23±3° C.), humidity (50±5%) and lighting with food and water available ad libitum.
The hair was clipped using clippers (8000AD, THRIVE) over the rostral part of the back 24 hours before the experiment under anesthesia with isoflurane. Substance P (100 nmol) was dissolved in saline and a volume of 40 μL injected intradermally into the rostral part of the back. Mice were dosed with either vehicle (20% cyclodextrin in second distilled water) or the compound by orally administration. The Compound (50 mg/kg) dissolved in a vehicle (20% cyclodextrin in second distilled water) and administered orally at a volume of 10 mL/kg.
Mice (n=10 per group) were divided into 3 groups (normal group, control group and experimental group). The animals were randomized for similar body weight distribution. A Vehicle or the compound was administered 20 minutes before injection of substance P or saline. Immediately after intradermal injection, the animals were returned to an acrylic cage (approximately 30×30×30 cm, access production) composed of four cells, to which they had been acclimated for at least 1 hour before the experiment, for observation of itch responses. A camera (Samsung, VLUUNV30) was positioned above the mice to record their response. Itch was measured by blinded counting of the number of scratching in the 20 min period immediately after the intradermal injection. A number of scratching was defined as 3 or more individual rapid scratch movements with the hind paws around the injection site (J. Toxicol. Sci. 2009, 34(4), 427-431; J. Pharmacol. Sci. 2006, 100, 285-288). All data were analyzed by using Excel and Prism, and all values are expressed as the mean±S.E.M. The inhibitory effect of compounds is shown as a percentage of the maximal response to histamine (100% control group). Statistical analysis was analyzed using one-way ANOVA with Dunnett test. Values of p<0.05 were considered statistically significant.

| SMILES | IC50 [1] [nM] | IC50 [2] [µM] | solubility at 1 h [3] [µg/mL] | solubility at 2 h [3] [µg/mL] | Cmax [4] [ng/mL] | AUC(0-inf) [4] [ng·h/mL] | half-life [4] [min] | Number of scratching (% change from control group) [5] |
| --- | --- | --- | --- | --- | --- | --- | --- | --- |
| Clc1cnc2nc(N3CCNCC3)c3nncn3c2c1 [Compound 7, 8-Chloro-4-(piperazin-1-yl)pyrido[2,3-e][1,2,4]triazolo[4,3-a]pyrazine] | 133 | > 100 | 1370 (≈ 4.74 mM) | 1150 (≈ 3.97 mM) | 6570 | 16500 | 76.8 | 60.5^1% |
| CNC1CN(c2nc3ncc(I)cc3n3cnnc23)C1 [Compound 48, 1-(8-Iodopyrido[2,3-e][1,2,4]triazolo[4,3-a]pyrazin-4-yl)-N-methylazetidin-3-amine] | 65 | > 100 | 1610 (≈ 4.22 mM) | 677 (≈ 1.78 mM) | 10200 | 21600 | 87.6 | 33.5% |
| CNC1CN(c2nc3ncc(Cl)cc3n3cnnc23)C1 [Compound 18, 1-(8-Chloropyrido[2,3-e][1,2,4]triazolo[4,3-a]pyrazin-4-yl)-N-methylazetidin-3-amine] | 55 | > 100 | 1590 (≈ 5.5 mM) | 791 (≈ 2.73 mM) | 12300 | 23700 | 79.2 | 42.6% |
| CN1CCN(c2nc3ncc(Cl)cc3n3cnnc23)CC1 [Compound 4, 8-Chloro-4-(4-methylpiperazin-1-yl)pyrido[2,3-e][1,2,4]triazolo[4,3-a]pyrazine] | 40 | 90 | 2010 (≈ 6.61 mM) | 1240 (≈ 4.09 mM) | 14900 | 35600 | 133 | 50.8% |
| CNC1CN(c2nc3ncc(Br)cc3n3cnnc23)C1 [Compound 24, 1-(8-Bromopyrido[2,3-e][1,2,4]triazolo[4,3-a]pyrazin-4-yl)-N-methylazetidin-3-amine] | 36 | > 100 | 1690 (≈ 5.06 mM) | 939 (≈ 2.81 mM) | 18900 | 32200 | 57.6 | 74.5^1% |
| CNC1CN(c2nc3ncc(Br)cc3n3nnnc23)C1 [Compound 95, 1-(8-Bromopyrido[2,3-e]tetrazolo[1,5-a]pyrazin-4-yl)-N-methylazetidin-3-amine] | 44 | > 100 | 1790 (≈ 5.34 mM) | 1130 (≈ 3.36 mM) | 15400 | 98300 | 242 | 80.7^1% |
